Measurements from US6469028B1, “Synthesis and use of retinoid compounds having negative hormone and/or anatgonist activities” (Allergan, Inc., priority 1995, dated 2002).

What was measured:
[1] = biological target: T1, RARγ (Homo sapiens, UniProt P13631); assay: [3H]-ATRA displacement assay, baculovirus expressed receptor; assay type: binding; design: made in house; host or cells: baculovirus expression system; details: Table 12; relative affinity, competition of 3H-ATRA binding, Cheng-Prussof equation
T1 sequence (P13631 1-454): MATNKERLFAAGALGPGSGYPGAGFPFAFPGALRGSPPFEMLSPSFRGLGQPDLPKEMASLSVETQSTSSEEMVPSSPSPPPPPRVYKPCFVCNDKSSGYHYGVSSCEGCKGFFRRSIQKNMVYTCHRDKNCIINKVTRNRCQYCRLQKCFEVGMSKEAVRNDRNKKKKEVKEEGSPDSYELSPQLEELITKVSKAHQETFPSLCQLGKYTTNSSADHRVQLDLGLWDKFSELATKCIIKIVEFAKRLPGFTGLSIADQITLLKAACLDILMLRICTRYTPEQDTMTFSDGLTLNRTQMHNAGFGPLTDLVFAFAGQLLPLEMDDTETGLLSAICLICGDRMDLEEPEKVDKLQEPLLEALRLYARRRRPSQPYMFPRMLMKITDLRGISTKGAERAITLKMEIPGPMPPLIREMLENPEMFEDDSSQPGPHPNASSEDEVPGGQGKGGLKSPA

[2] = test system: RAR-γ-VP-16; assay: Example 12: assay for retinoid negative hormones, CV-1 cells; assay type: cell-based; details: 10^−9 to 10^−6 M, 18 hours, no agonist
[3] = test system: TPA-induced AP-1 activity; assay: Example 15: anti-AP-1 activity, Str-AP1-CAT in HeLa cells; assay type: cell-based; details: 1,25-dihydroxyvitamin D3 alone, 10^−12 to 10^−7 M
Method: HeLa cells were transfected with 1 μg of Str-AP1-CAT using LIPOFECTAMINE according to the method described by Nagpal et al. in J. Biol. Chem. 270:923 (1995). Transfected cells were treated with AGN 193109 alone (10^−9 to 10^−7 M), 1,25-dihydroxyvitamin D3 alone (10^−12 to 10^−7 M) or 1,25-dihydroxyvitamin D3 (10^−12 to 10^−7 M) in the presence of 10^−8 M AGN 193109.

[4] = test system: 1,25-dihydroxyvitamin D3-dependent gene expression; assay: Example 14: 1,25-dihydroxyvitamin D3 transactivation, MTV-VDRE-Luc in HeLa cells; assay type: cell-based; details: 1,25-dihydroxyvitamin D3 alone
Method: Hela cells were transfected using the cationic liposome-mediated transfection procedure described by Feigner et al. in Proc. Natl. Acad. Sci. USA 84:7413 (1987). 5×10^4 cells were plated in 12-well multiwell plates and grown in DMEM supplemented with 10% FBS. Cells were cotransfected in serum-free medium using 2 μg/well of LIPOFECTAMINE reagent (Life Technologies, Inc.) with 0.7 μg of the reporter plasmid MTV-VDRE-Luc, containing two copies of the 1,25-dihydroxyvitamin D3 response element [NT] ID NO:4) from the mouse osteopontin gene (Ferrara et al. J. Biol. Chem. 269:2971 (1994)) ligated into the reporter plasmid ΔMTV-Luc (Heyman et al. in Cell 68:397 (1992)), and 0.3 μg of the plasmid pGEM3Z (Pharmacia, Inc.) as carrier DNA to bring the final concentration of DNA to 1.0 μg per well. After six hours of transfection, cells were fed with growth medium containing charcoal extracted FBS at a final concentration of 10%. […] Luciferase activity was measured as described above. This experimental system allowed a convenient method of monitoring and quantitating 1,25-dihydroxyvitamin D3-dependent gene expression.

[5] = test system: hairless mice; assay: Example 1: skin irritation by topical agonist, topical antagonist; assay type: in vivo
Method: More particularly skin irritation was measured on a semiquantitative scale by the daily subjective evaluation of skin flaking and abrasions. A single number, the topical irritation score, summarizes the skin irritation induced in an animal during the course of an experiment. The topical irritation score is calculated as follows. The topical irritation score is the algebraic sum of a composite flaking score and a composite abrasion score. The composite scores range from 0-9 and 0-8 for flaking and abrasions, respectively, and take into account the maximum severity, the time of onset, and the average severity of the flaking and abrasions observed.
The severity of flaking is scored on a 5-point scale and the severity of abrasions is scored on a 4-point scale, with higher scores reflecting greater severity. The maximum severity component of the composite scores would be the highest daily severity score assigned to a given animal during the course of observation.
For the time of onset component of the composite score, a score ranging from 0 to 4 is assigned as follows:
The average severity component of the composite score is the sum of the daily flaking or abrasion scores divided by the number of observation days.
To calculate the composite flaking and abrasion scores, the average severity and time of onset scores are summed and divided by 2. The result is added to the maximal severity score. The composite flaking and abrasion scores are then summed to give the overall topical irritation score. Each animal receives a topical irritation score, and the values are expressed as the mean±SD of the individual scores of a group of animals. Values are rounded to the nearest integer.
Female hairless mice [Crl:SKH1-hrBR] […] Treatments are applied to the dorsal skin in a total volume of 4 ml/kg (˜0.1 ml). Mice were observed daily and scored for flaking and abrasions up to and including 3 days after the last treatment, i.e., day 8.

[6] = Example 4: retinoid-induced hypertriglyceridemia (serum triglycerides); assay type: in vivo, rats; details: group C: AGN 191659 3.7 mg/kg oral alone
Method: Male Fischer rats (6-7 weeks old, n=5) were treated by intragastric intubation with corn oil (vehicle), AGN 191659, AGN 193109 or a combination of AGN 191659 and AGN 193109. AGN 191659 and AGN 193109 were given as fine suspensions in corn oil.
Serum was separated from blood by low speed centrifugation. Total serum triglycerides (triglycerides plus glycerol) were measured with a standard spectrophotometric endpoint assay available commercially as a kit and adapted to a 96-well plate format. Serum triglyceride levels are expressed as the mean±SD. Means were compared statistically by one-way analysis of variance followed by Dunnett's test if significant differences were found. Differences were considered significant at P<0.05.

## CC1(C)CC=C(c2cccs2)c2cc(C#Cc3ccc(C(=O)O)cc3)ccc21 [Compound 34a, 4-[(5,6-dihydro-5,5-dimethyl-8-(2-thienyl)-2-naphthalenyl)ethynyl]benzoic acid]
[1]
  Kd: 52 nM
[2]
  RAR-γ-VP-16 constitutive activity (negative hormone activity): did not repress RAR-γ-VP-16 activity

## C=C1/C(=C\C=C2/CCC[C@]3(C)[C@@H]([C@H](C)CCCC(C)(C)O)CC[C@@H]23)C[C@@H](O)C[C@@H]1O [1,25-dihydroxyvitamin D3, reference compound]
[3]
  repression of TPA-stimulated activity: repressed TPA-stimulated activity only in the 10^−8 and 10^−7 M concentration range
[4]
  concentration required to produce a luciferase expression of approximately 2,000 rlu: 10^−8 M

## Cc1ccc(C2=CCSc3ccc(C#Cc4ccc(C(=O)O)cc4)cc32)cc1 [Compound 50, 4-[2-(6-(4-(4-methylphenyl)-(2H)-1-benzothiopyranyl))ethynyl]-benzoic acid]
[1]
  Kd: 30 nM
[2]
  RAR-γ-VP-16 constitutive activity (negative hormone activity): dose dependent repression of RAR-γ-VP-16 constitutive activity

## CC1(C)CC=C(c2ccccc2)c2cc(C#Cc3ccc(C(=O)O)cc3)ccc21 [Compound 60a, 4-[(5,6-dihydro-5,5-dimethyl-8-phenyl-2-naphthalenyl)ethynyl]benzoic acid]
[5]; group C: AGN 192869 0.06 mg/kg/d + AGN 191183 0.025 mg/kg/d topical, molar ratio 2:1
  Topical Irritation Score: 5 ± 2
[5]; group D: AGN 192869 0.30 mg/kg/d + AGN 191183 0.025 mg/kg/d topical, molar ratio 10:1
  Topical Irritation Score: 2 ± 1
[5]; group E: AGN 192869 1.5 mg/kg/d + AGN 191183 0.025 mg/kg/d topical, molar ratio 50:1
  Topical Irritation Score: 1 ± 0
[5]; group F: AGN 192869 1.5 mg/kg/d topical alone
  Topical Irritation Score: 0 ± 0

## C/C(=C\c1ccc(C(=O)O)s1)c1cc2c(cc1C)C(C)(C)CCC2(C)C [AGN 191659, 5-[(E)-2-(5,6,7,8-tetrahydro-3,5,5,8,8-pentamethylnaphthalen-2-yl)propen-1-yl]-2-thiophencarboxylic acid, reference compound]
[6]
  Serum Triglycerides: 122.5 ± 27.6 mg/dL
